Data taken from patent publication US5304367A, “In vivo brain imaging agent and method for diagnosis of psychiatric disorders” (New York University, priority 1990, dated 1994).
Where two headings read alike, the source gives them in different places.

Legend:
[1] = tested on: βAR; experiment: quantitative autoradiography, age dependence of βAR distribution in the human brain; type: binding
[2] = tested on: βAR; type: binding, human
[3] = tested on: β-adrenergic receptor; experiment: quantitative autoradiography of brain sections from suicides and controls ([125I]iodopindolol); type: binding, human
Description: Beta Receptor Autoradiography
Iodopindolol is a well characterized βAR antagonist with a very high affinity (<1 nM) and specificity (Barovsky, K. et al., supra). Receptor binding studies are performed according to techniques well known in the art (see, for example, Kuhar, M. J., supra; Rainbow, T. C. et al., 1982, 1984, supra). A preferred method is described herein, although it will be apparent to one of skill in the art that the disclosed method may be modified according to the tissue preparation and ligand used.
Slides holding tissue sections are incubated for about 70 min at approximately 25° C. with 0.15 nM ^125 I-iodopindolol (New England Nuclear, 2200 Ci/mmole) in 25 mM Tris buffer, pH 7.5, containing 150 mM NaCl. Nonspecific binding is determined in the presence of 1 μM propranolol (see Examples, below). Zinterol, a selective β2 blocker, or metoprolol, a selective β1 antagonist, are added to the incubation buffer at 0.1 μM to achieve selective labeling of the β1 and β2 receptor subtypes, respectively. The incubation is followed by three 20 min washes in the same ice cold buffer. Slides are then dipped in ice cold distilled water to remove buffer salts, dried on a 50° C. slide warmer and apposed to ^3 H-sensitive film (Amersham ^3 H-hyperfilm) for 48-96 hours. The film is coexposed to commercial iodine standards (available from Amersham, for example). Film is developed manually using standard developer and fixer such as those available from the Eastman-Kodak Company. Sections are stained with cresyl violet and structures identified from the stained sections with the assistance of atlases and neuroanatomical texts such as: Barr M. L., The Human Nervous System: An Anatomical Viewpoint. Harper and Row, New York (1974); Carpenter M. B., Human Neuroanatomy. Williams and Wilkins, Baltimore (1976); DeArmond S. J. et al., Structure of the Human Brain : A Photographic Atlas. Oxford University Press, New York (1974); Nieuwenhuys R. et al., The Human Central Nervous System, Springer-Verlag, New York (1981 ), which references are hereby incorporated by reference.
Autoradiograms are analyzed by computerized image analysis systems well-known in the art (for example, with the aid of an IBM-PC). The autoradiograms are placed on a light box and a video camera is used for image acquisition. […] Standard curves derived from the iodine standards are used to convert gray level readings into equivalents of fmol ^125 I-iodopindolol / mg tissue. Specific binding is calculated by subtracting nonspecific from total binding.
Fourteen suicide and 14 pair-matched control brains were collected over 3 years from the medical examiner's offices in New York City and Jaffa, ISRAEL. […] The results of the coroner's examination as well as the results of broad-spectrum toxicological tests performed by the forensic laboratory were made available within 8 weeks. Only drug-free and pathology-free brains were included. For each suicide brain, a control matched for sex and age group with a PMD under 48 hours was collected the same day or within a few days, so that the pairs are also matched for storage time. The brains from each pair were dissected or sectioned on the same day and receptors were labeled in the same experiment, by an experimenter blind to the identity of the samples.
For autoradiography, slices from frontal cortical and anterior basal ganglia levels were sectioned in a Bright Cryotome (a refrigerated whole-body microtome) at -15° C. Sections of 40 μm were thaw- mounted onto gelatin-coated glass slides and βARs were labeled with [^125 I]iodopindolol (Pazos et al., Brain Res. 358:324-328 (1982)); Rainbow et al., Proc. Natl. Acad. Sci. U.S.A., 81:1585-1589 (1984)). Receptors were labeled with 150 pM iodopindolol, with or without 10^-6 M propranolol to define non-specific binding. The autoradiograms were developed after 48 or 72 hours. […]

CC(C)NCC(O)COc1cccc2[nH]cc([125I])c12 (stereo not shown) [^125 I-iodopindolol]
specifically bound ([1]; caudate nucleus, head, male, N=5): 1.45 ± 0.34 fmol [^125 I]iodopindolol/mg tissue | specifically bound ([1]; caudate nucleus, tail, female, N=8): 1.15 ± 0.17 fmol [^125 I]iodopindolol/mg tissue | specifically bound ([1]; caudate nucleus, tail, male, N=14): 1.39 ± 0.23 fmol [^125 I]iodopindolol/mg tissue | specifically bound ([1]; claustrum, female, N=5): 0.64 ± 0.18 fmol [^125 I]iodopindolol/mg tissue | specifically bound ([1]; claustrum, male, N=9): 0.86 ± 0.14 fmol [^125 I]iodopindolol/mg tissue | specifically bound ([1]; entorhinal cortex, female, N=3): 0.94 ± 0.33 fmol [^125 I]iodopindolol/mg tissue | specifically bound ([1]; entorhinal cortex, male, N=10): 1.00 ± 0.19 fmol [^125 I]iodopindolol/mg tissue | specifically bound ([1]; globus pallidus, lateral, female, N=5): 0.78 ± 0.16 fmol [^125 I]iodopindolol/mg tissue | specifically bound ([1]; globus pallidus, lateral, male, N=8): 0.85 ± 0.20 fmol [^125 I]iodopindolol/mg tissue | specifically bound ([1]; globus pallidus, medial, female, N=3): 0.44 ± 0.09 fmol [^125 I]iodopindolol/mg tissue | specifically bound ([1]; globus pallidus, medial, male, N=8): 0.73 ± 0.17 fmol [^125 I]iodopindolol/mg tissue | specifically bound ([1]; hippocampus, CA fields, molecular layer, female, N=4): 1.70 ± 0.40 fmol [^125 I]iodopindolol/mg tissue | specifically bound ([1]; hippocampus, CA fields, molecular layer, male, N=13): 1.74 ± 0.26 fmol [^125 I]iodopindolol/mg tissue | specifically bound ([1]; hippocampus, CA fields, pyramidal layer, female, N=4): 1.70 ± 0.26 fmol [^125 I]iodopindolol/mg tissue | specifically bound ([1]; hippocampus, CA fields, pyramidal layer, male, N=13): 1.74 ± 0.26 fmol [^125 I]iodopindolol/mg tissue | specifically bound ([1]; inferior temporal gyrus, external band, female, N=5): 1.21 ± 0.14 fmol [^125 I]iodopindolol/mg tissue | specifically bound ([1]; inferior temporal gyrus, external band, male, N=13): 1.04 ± 0.16 fmol [^125 I]iodopindolol/mg tissue | specifically bound ([1]; inferior temporal gyrus, internal band, female, N=6): 1.11 ± 0.17 fmol [^125 I]iodopindolol/mg tissue | specifically bound ([1]; inferior temporal gyrus, internal band, male, N=13): 1.14 ± 0.17 fmol [^125 I]iodopindolol/mg tissue | specifically bound ([1]; lateral occipitotemporal gyrus, external band, female, N=6): 0.93 ± 0.19 fmol [^125 I]iodopindolol/mg tissue | specifically bound ([1]; lateral occipitotemporal gyrus, external band, male, N=13): 0.94 ± 0.13 fmol [^125 I]iodopindolol/mg tissue | specifically bound ([1]; lateral occipitotemporal gyrus, internal band, female, N=6): 0.86 ± 0.11 fmol [^125 I]iodopindolol/mg tissue | specifically bound ([1]; lateral occipitotemporal gyrus, internal band, male, N=13): 1.02 ± 0.14 fmol [^125 I]iodopindolol/mg tissue | specifically bound ([1]; medial temporal gyrus, external band, female, N=6): 1.03 ± 0.15 fmol [^125 I]iodopindolol/mg tissue | specifically bound ([1]; medial temporal gyrus, external band, male, N=13): 1.05 ± 0.18 fmol [^125 I]iodopindolol/mg tissue | specifically bound ([1]; medial temporal gyrus, internal band, female, N=6): 1.06 ± 0.15 fmol [^125 I]iodopindolol/mg tissue | specifically bound ([1]; medial temporal gyrus, internal band, male, N=13): 1.18 ± 0.17 fmol [^125 I]iodopindolol/mg tissue | specifically bound ([1]; parahippocampal gyrus, external band, female, N=7): 1.22 ± 0.32 fmol [^125 I]iodopindolol/mg tissue | specifically bound ([1]; parahippocampal gyrus, external band, male, N=13): 1.07 ± 0.19 fmol [^125 I]iodopindolol/mg tissue | specifically bound ([1]; parahippocampal gyrus, internal band, female, N=6): 1.01 ± 0.23 fmol [^125 I]iodopindolol/mg tissue | specifically bound ([1]; parahippocampal gyrus, internal band, male, N=13): 0.95 ± 0.15 fmol [^125 I]iodopindolol/mg tissue | specifically bound ([1]; putamen, female, N=6): 1.05 ± 0.22 fmol [^125 I]iodopindolol/mg tissue | specifically bound ([1]; putamen, male, N=11): 1.24 ± 0.18 fmol [^125 I]iodopindolol/mg tissue | specifically bound ([1]; subiculum, female, N=5): 1.35 ± 0.33 fmol [^125 I]iodopindolol/mg tissue | specifically bound ([1]; subiculum, male, N=12): 1.36 ± 0.20 fmol [^125 I]iodopindolol/mg tissue | specifically bound ([1]; superior temporal gyrus, external band, female, N=6): 1.18 ± 0.18 fmol [^125 I]iodopindolol/mg tissue | specifically bound ([1]; superior temporal gyrus, external band, male, N=14): 1.13 ± 0.16 fmol [^125 I]iodopindolol/mg tissue | specifically bound ([1]; superior temporal gyrus, internal band, female, N=6): 1.04 ± 0.13 fmol [^125 I]iodopindolol/mg tissue | specifically bound ([1]; superior temporal gyrus, internal band, male, N=14): 1.18 ± 0.15 fmol [^125 I]iodopindolol/mg tissue | specifically bound ([1]; white matter, female, N=8): 0.47 ± 0.09 fmol [^125 I]iodopindolol/mg tissue | specifically bound ([1]; white matter, male, N=18): 0.59 ± 0.07 fmol [^125 I]iodopindolol/mg tissue | specific binding ([2]; cingulate gyrus, external band, female, n=4): 1.20 ± 0.31 fmol [^125 I]iodopindolol/mg tissue | specific binding ([2]; cingulate gyrus, external band, male, n=10): 0.99 ± 0.18 fmol [^125 I]iodopindolol/mg tissue | specific binding ([2]; cingulate gyrus, internal band, female, n=4): 1.31 ± 0.24 fmol [^125 I]iodopindolol/mg tissue | specific binding ([2]; cingulate gyrus, internal band, male, n=10): 0.87 ± 0.16 fmol [^125 I]iodopindolol/mg tissue | specific binding ([2]; gyrus rectus, external band, female, n=3): 1.42 ± 0.13 fmol [^125 I]iodopindolol/mg tissue | specific binding ([2]; gyrus rectus, external band, male, n=9): 0.93 ± 0.18 fmol [^125 I]iodopindolol/mg tissue | specific binding ([2]; gyrus rectus, internal band, female, n=3): 1.24 ± 0.23 fmol [^125 I]iodopindolol/mg tissue | specific binding ([2]; gyrus rectus, internal band, male, n=9): 0.80 ± 0.13 fmol [^125 I]iodopindolol/mg tissue | specific binding ([2]; inferior frontal gyrus, external band, female, n=5): 1.08 ± 0.19 fmol [^125 I]iodopindolol/mg tissue | specific binding ([2]; inferior frontal gyrus, external band, male, n=11): 0.86 ± 0.13 fmol [^125 I]iodopindolol/mg tissue | specific binding ([2]; inferior frontal gyrus, internal band, female, n=5): 0.99 ± 0.16 fmol [^125 I]iodopindolol/mg tissue | specific binding ([2]; inferior frontal gyrus, internal band, male, n=11): 0.78 ± 0.13 fmol [^125 I]iodopindolol/mg tissue | specific binding ([2]; medial frontal gyrus, external band, female, n=5): 1.36 ± 0.23 fmol [^125 I]iodopindolol/mg tissue | specific binding ([2]; medial frontal gyrus, external band, male, n=13): 0.77 ± 0.12 fmol [^125 I]iodopindolol/mg tissue | specific binding ([2]; medial frontal gyrus, internal band, female, n=5): 1.09 ± 0.16 fmol [^125 I]iodopindolol/mg tissue | specific binding ([2]; medial frontal gyrus, internal band, male, n=12): 0.71 ± 0.10 fmol [^125 I]iodopindolol/mg tissue | specific binding ([2]; orbital gyri, external band, female, n=4): 1.46 ± 0.25 fmol [^125 I]iodopindolol/mg tissue | specific binding ([2]; orbital gyri, external band, male, n=11): 0.77 ± 0.12 fmol [^125 I]iodopindolol/mg tissue | specific binding ([2]; orbital gyri, internal band, female, n=4): 1.24 ± 0.18 fmol [^125 I]iodopindolol/mg tissue | specific binding ([2]; orbital gyri, internal band, male, n=10): 0.70 ± 0.10 fmol [^125 I]iodopindolol/mg tissue | specific binding ([2]; superior frontal gyrus, external band, female, n=6): 1.48 ± 0.25 fmol [^125 I]iodopindolol/mg tissue | specific binding ([2]; superior frontal gyrus, external band, male, n=16): 0.87 ± 0.09 fmol [^125 I]iodopindolol/mg tissue | specific binding ([2]; superior frontal gyrus, internal band, female, n=6): 1.24 ± 0.12 fmol [^125 I]iodopindolol/mg tissue | specific binding ([2]; superior frontal gyrus, internal band, male, n=16): 0.82 ± 0.07 fmol [^125 I]iodopindolol/mg tissue | specific binding ([2]; white matter, female, n=6): 0.78 ± 0.09 fmol [^125 I]iodopindolol/mg tissue | specific binding ([2]; white matter, male, n=16): 0.46 ± 0.04 fmol [^125 I]iodopindolol/mg tissue | nonspecific binding ([3]; FIG. 2, sagittal section, normal male, in the presence of propranolol): low and uniform throughout the section | [125I]iodopindolol bound ([3]; caudate, control, n=5): 13.2 ± 4.0 fm/mg tissue | [125I]iodopindolol bound ([3]; caudate, suicide, n=5): 15.4 ± 2.0 fm/mg tissue | [125I]iodopindolol bound ([3]; cingulate gyrus, control, n=8): 11.8 ± 3.3 fm/mg tissue | [125I]iodopindolol bound ([3]; cingulate gyrus, suicide, n=8, P < 0.04): 16.0 ± 2.7 fm/mg tissue | [125I]iodopindolol bound ([3]; frontalis inferior, control, n=6): 14.2 ± 4.0 fm/mg tissue | [125I]iodopindolol bound ([3]; frontalis inferior, suicide, n=6): 17.2 ± 4.1 fm/mg tissue | [125I]iodopindolol bound ([3]; frontalis medius, control, n=8): 9.3 ± 4.0 fm/mg tissue | [125I]iodopindolol bound ([3]; frontalis medius, suicide, n=8): 16.7 ± 3.5 fm/mg tissue | [125I]iodopindolol bound ([3]; frontalis superior, control, n=9): 10.8 ± 2.6 fm/mg tissue | [125I]iodopindolol bound ([3]; frontalis superior, suicide, n=9, P < 0.03): 17.2 ± 2.9 fm/mg tissue | [125I]iodopindolol bound ([3]; putamen, control, n=5): 19.5 ± 1.1 fm/mg tissue | [125I]iodopindolol bound ([3]; putamen, suicide, n=5): 17.4 ± 2.5 fm/mg tissue | [125I]iodopindolol bound ([3]; white matter (cortical), control, n=9): 5.6 ± 1.8 fm/mg tissue | [125I]iodopindolol bound ([3]; white matter (cortical), suicide, n=9): 6.7 ± 0.7 fm/mg tissue
